In patent publication US7462605B2, “Phosphoramidate compounds and methods of use” (Celmed Oncology (USA), Inc., priority 2002, dated 2008):
Where two headings read alike, the source gives them in different places.

Assays:
[1] = test system: CCD18co normal colon epithelial cells; assay: alamarBlue growth inhibition, CCD18co; assay type: cell-based, human
Protocol: (§1) Growth Inhibition Studies. Cells growing exponentially were transferred to 384-well flat bottom tissue culture plates. All cell types were plated at a density of 500 cells per well in 25 μL of complete medium (RPMI 1640+10% fetal bovine serum+antibiotics/antimycotics). After 24 hours (day 0), 25 μL of complete medium containing the experimental compounds over the dose range of 10^ñ3 to 10^ñ10 M were added in triplicate. […] 5 μL of the redox indicator, alamarBlue, was added to each well (10% v/v). After 4 hours incubation at 37° C., fluorescence was monitored at 535 nm excitation and 595 nm emission.
(§2) Concentration vs. relative fluorescence units (RFU) were plotted, and sigmoid curves were fit using the Hill equation.

[2] = test system: DET551 (Skin) normal cells; assay: alamarBlue growth inhibition, DET551; assay type: cell-based, human; settings: 120 hours
Protocol: as §1, §2

NHDF (Skin) normal cells = assay: alamarBlue growth inhibition, NHDF; assay type: cell-based, human; settings: 120 hours
Protocol: as §1, §2

W138 (Lung) normal cells = assay: alamarBlue growth inhibition, W138; assay type: cell-based, human; settings: 120 hours
Protocol: as §1, §2

[3] = test system: NPRSC (Prostate) normal cells; assay: alamarBlue growth inhibition, NPRSC; assay type: cell-based, human; settings: 120 hours
Protocol: as §1, §2

[4] = test system: NHEPF (Liver) normal cells; assay: alamarBlue growth inhibition, NHEPF; assay type: cell-based, human; settings: 120 hours
Protocol: as §1, §2

[5] = test system: H630R10 5FU-resistant colon tumor cells; assay: alamarBlue growth inhibition, H630R10; assay type: cell-based, human
Protocol: as §1, §2

[6] = test system: COLO205 (Colon) tumor cells; assay: alamarBlue growth inhibition, COLO205; assay type: cell-based, human; settings: 120 hours
Protocol: as §1, §2

[7] = test system: SW620 (Colon) tumor cells; assay: alamarBlue growth inhibition, SW620; assay type: cell-based, human; settings: 120 hours
Protocol: as §1, §2

[8] = test system: MDAMB361 (Breast) tumor cells; assay: alamarBlue growth inhibition, MDAMB361; assay type: cell-based, human; settings: 120 hours
Protocol: as §1, §2

[9] = test system: PANC1 (Pancreas) tumor cells; assay: alamarBlue growth inhibition, PANC1; assay type: cell-based, human; settings: 120 hours
Protocol: as §1, §2

[10] = test system: PC3 (Prostate) tumor cells; assay: alamarBlue growth inhibition, PC3; assay type: cell-based, human; settings: 120 hours
Protocol: as §1, §2

[11] = test system: HEPG2 (Liver) tumor cells; assay: alamarBlue growth inhibition, HEPG2; assay type: cell-based, human; settings: 120 hours
Protocol: as §1, §2

[12] = test system: SKHEP1 (Liver) tumor cells; assay: alamarBlue growth inhibition, SKHEP1; assay type: cell-based, human; settings: 120 hours
Protocol: as §1, §2

[13] = test system: normal and tumor cell types; assay: cells; settings: for IC50: read-out: IC50 (μM), Average
Protocol: Growth Inhibition Studies. Cells growing exponentially were transferred to 384-well flat bottom tissue culture plates. All cell types were plated at a density of 500 cells per well in 25 μL of complete medium (RPMI 1640+10% fetal bovine serum+antibiotics/antimycotics). After 24 hours (day 0), 25 μL of complete medium containing the experimental compounds over the dose range of 10^ñ3 to 10^ñ10 M were added in triplicate. Drug exposure time was 120 hours (day 5), after which growth inhibition was assayed. 5 μL of the redox indicator, alamarBlue, was added to each well (10% v/v). After 4 hours incubation at 37° C., fluorescence was monitored at 535 nm excitation and 595 nm emission.
as §2
Assays were carried out as described in Methods, above. Therapeutic index is calculated as the ratio of the average IC50 for normal cells to the average IC50 for tumor cells. All assays were done at least three times.

TSL/HT1080 cells = assay: alamarBlue cytotoxicity, HT1080 expressing low GFP-TS; assay type: cell-based, human; settings: TSL/HT1080, TS Level 409%
Protocol: Cell lines and transfection. HT1080 cells were grown in PRM11640 medium supplemented with 10% fetal calf serum, and transfected with GFP-TS expression vector. 48 hours after, transfection cells were tripsinized and replated in culture medium containing 750 μg/ml G418. After selection with G418 for two weeks, surviving cells were sorted based upon fluorescence expression. One clone with higher fluorescence expression (named as TSH/HT1080) and one clone with lower fluorescence expression (named as TSL/HT1080) were selected and expanded into cells lines. The stable HT1080 cells transfected with pEGFP-C3 were used as control.
Construction of GFP-TS expression vector. […] The cDNA was cloned into HindIII and KpnI sites of mammalian expression vector pEGFP-C3 (Clontech Laboratories. Inc., Palo Alto, Calif.), in-frame with GFP sequence. The cDNA insert was confirmed by DNA sequencing.
Growth Inhibition Studies. Cells growing exponentially were transferred to 384-well flat bottom tissue culture plates. All cell types were plated at a density of 500 cells per well in 25 μL of complete medium (RPMI 1640+10% fetal bovine serum+antibiotics/antimycotics). […] After 4 hours incubation at 37° C., fluorescence was monitored at 535 nm excitation and 595 nm emission.
as §2

[14] = test system: MCF7 TDX (Tomudex-resistant MCF7 breast cancer cells); assay: alamarBlue cytotoxicity, MCF7 TDX; assay type: cell-based, human
Protocol: as §1, §2
Reversal of Resistance. The origin and characteristics of the human breast cancer MCF7 TDX cell line have been previously described (Drake, et al. (1996)). Briefly, MCF-7 breast cancer cells were selected in vitro for resistance to Tomudex by continuous exposure to stepwise increases in TDX concentrations up to 2.0 μM. […] After a dramatic initial cell killing effect, resistant colonies emerged, and vigorously growing monolayers were formed. TS protein level and IC50 for 5-FU, TDX, and NB1011 were determined for the resultant MCF7 TDX/1011 cell line as described in above by western blot and the alamarBlue cytotoxicity assay, respectively.

H630 colon cancer cells = assay: alamarBlue cytotoxicity, H630 parental; assay type: cell-based, human; settings: Drug Selection None, read-out: NB1011-IC50
Protocol: as §1, §2
(§3) Cells were grown and characterized as described above. TS expression level is relative to CCD18co, a normal colon epithelial cell line. Tritium release is background substracted as described in Methods. ND=Not detectable above background.

RKO colon cancer cells = assay: alamarBlue cytotoxicity, RKO parental; assay type: cell-based, human; settings: Drug Selection None, read-out: NB1011-IC50
Protocol: as §1, §2, §3

[15] = test system: RKO colon cancer cells, TDX selection; assay: alamarBlue cytotoxicity, RKO TDX-selected; assay type: cell-based, human; settings: Drug Selection TDX, read-out: NB1011-IC50
Protocol: as §1, §2, §3

N1S1 cells = assay: alamarBlue cytotoxicity, N1S1 parental; assay type: cell-based; settings: N1S1, Drug Selection None; read-out: NB1011-IC50
Protocol: as §1, §2, §3

With “5-(2-Bromovinyl)-2′-deoxyuridine phenyl N-methoxy-L-alaninyl phosphoramidate [NB1011]” the IC50 ([1]; Normal Cells: CCD1800 (Colon), alamarBlue, 120 hours) was 562 µM, the IC50 ([1]; normal colon epithelial cells (CCD18co), comparison with 5FUdR) was greater than 2500 µM and the IC50 [2] was 262 µM. The IC50 (NHDF (Skin) normal cells) was 359 µM, the IC50 (W138 (Lung) normal cells) was 335 µM and the IC50 [3] was 369 µM. For the same substance, the IC50 [4] was 2080 µM, the IC50 ([5]; H630 Colon cancer, Drug Selection 5FU, read-out: NB1011-IC50) was 65 µM and the “NB1011 activity diminished, compared to NB1011 alone” value ([5]; H630R10, in the presence of 3 μM LV, alamarBlue) was “more than 90%”. It also gave an IC50 ([5]; H630R10, comparison with 5FUdR, read-out: IC50) of 217 µM, an IC50 ([5]; Tumor Cells: H630R10 (Colon), alamarBlue, 120 hours, read-out: IC50) of 65 µM and an IC50 [6] of 105 µM. The IC50 [7] was 374 µM, the IC50 [8] was 365 µM and the IC50 [9] was 492 µM. It also gave an IC50 [10] of 184 µM, an IC50 [11] of 704 µM and an IC50 [12] of 247 µM. For the same substance, the “improvement in therapeutic index as compared with 5-FU” value ([13]; (2)×(3)) was 6 fold, the “more cytotoxic to tumor cells vs. normal cells” value ([13]; overall, panel) was “about 2 fold” and the IC50 ([13]; average of the 11 normal cell types) was 561 µM. For the same substance, the IC50 ([13]; average of the 21 tumor cell lines) was 288 µM, the IC50 (TSL/HT1080 cells) was 196 µM and the IC50 ([14]; MCF7 Breast cancer, Drug Selection TDX, read-out: NB1011-IC50) was 2.8 µM. For the same substance, the IC50 ([14]; MCF7 TDX, alamarBlue, read-out: IC50) was 2 µM, the IC50 (H630 colon cancer cells) was 414 µM and the IC50 (RKO colon cancer cells) was 136 µM. It also gave an IC50 [15] of 28 µM and an IC50 (N1S1 cells) of 494 µM.
